Values quoted from earlier work as cited in patent US20240148693A1, “COMPOSITION, PREPARATION METHOD THEREFOR, AND USE THEREOF” (CHANGSHA JINGYI PHARMACEUTICAL TECHNOLOGY CO., LTD, priority 2021, published 2024).

System: synaptic vesicle glycoprotein 2A (SV2A)
Settings: preclinical animal experiments

For CCC[C@@H]1CC(=O)N([C@@H](CC)C(N)=O)C1 [Brivaracetam], the “Affinity for SV2A relative to levetiracetam” value is given as 15-30 times.
